From patent US8017315B2, “Mitochondrial localization of MUC1” (Dana Farber Cancer Institute, Inc., priority 2005, dated 2011)
Ends that are not written are not given here.

How the values were obtained:
[1] = tested on: localization of MUC1-C to mitochondria; experiment: Immunoblot of purified mitochondria for MUC1 targeting; type: cell-based, Human; conditions: HCT116/MUC1 cells
Description: (§1) Cell culture. Human HCT116/vector, HCT116/MUC1, HCT116/MUC1(Y46F) (Ren et al. (2004) Cancer Cell 5:163-175) and HCT116/MUC1-CD (Huang et al. (2003) Cancer Biol. Ther. 2:702-706) cells were cultured in Dulbecco's Modified Eagle Medium/F12 with 10% heat-inactivated fetal bovine serum (HI-FBS), 100 units/ml penicillin, […], and 2 mM L-glutamine. Human HeLa cervical carcinoma, 293 embryonic kidney and MCF-7 breast cancer cells were grown in Dulbecco's Modified Eagle Medium containing 10% HI-FBS, antibiotics and L-glutamine. Human ZR-75-1 breast cancer cells were cultured in RPMI1640 medium containing 10% HI-FBS, antibiotics and L-glutamine. Cells were grown to 60% confluence and then maintained overnight in medium with 0.1% serum before treatment with heregulin (HRG; 20 ng/ml; Calbiochem-Novabiochem, LaJolla, Calif.).
(§2) Immunoprecipitation and immunoblotting. […] Reactivity was detected with horseradish peroxidase-conjugated secondary antibodies and chemiluminescence (PerkinElmer Life Sciences, Boston, Mass.). Intensity of the signals was determined by densitometric scanning. Statistical significance was determined by the Student's t-test. […]

c-Src = c-Src (Homo sapiens, UniProt P12931); experiment: c-Src activation (autophosphorylation), anti-c-Src immunoprecipitation and immunoblot; type: cell-based; conditions: HCT116/MUC1 cells
Description: as §1
Immunoprecipitation and immunoblotting. […] Reactivity was detected with horseradish peroxidase-conjugated secondary antibodies and chemiluminescence (PerkinElmer Life Sciences, Boston, Mass.). Intensity of the signals was determined by densitometric scanning. Statistical significance was determined by the Student's t-test.

[2] = tested on: binding of MUC1 and HSP90; experiment: MUC1-HSP90 co-immunoprecipitation and immunoblot in cells; type: cell-based, Human
Description: Cell culture. […] Human ZR-75-1 breast cancer cells were cultured in RPMI1640 medium containing 10% HI-FBS, antibiotics and L-glutamine. Cells were grown to 60% confluence and then maintained overnight in medium with 0.1% serum before treatment with heregulin (HRG; 20 ng/ml; Calbiochem-Novabiochem, LaJolla, Calif.).
Immunoprecipitation and immunoblotting. […] Lysates not subjected to immunoprecipitation were immunoblotted with anti-MUC1-C, anti-HSP60 (Stressgen Biotechnologies, Victoria, BC, Canada), anti-PDGFR (Santa Cruz Biotechnology), anti-BAP31 (Abcam, Cambridge, Mass.), anti-PCNA (Calbiochem-Novabiochem), anti-IkBa (Santa Cruz Biotechnology), anti-calreticulin (Stressgen Biotechnologies), anti-Tom20 (BD Biosciences), anti-Tim23 (BD Biosciences), anti-Tim44 (BD Biosciences) or anti-β-actin (Sigma-Aldrich). Reactivity was detected with horseradish peroxidase-conjugated secondary antibodies and chemiluminescence (PerkinElmer Life Sciences, Boston, Mass.). Intensity of the signals was determined by densitometric scanning. Statistical significance was determined by the Student's t-test.
Subcellular fractionation. […] SM buffer ([…]) was added to one aliquot, and hypotonic buffer (10 mM MOPS-KOH, pH 7.2; […]) was added to the other aliquot. The samples were incubated for 15 minutes on ice and then left untreated or digested with […] trypsin (Sigma-Aldrich) for 15 minutes at 4° C. In other experiments, purified mitochondria in suspension buffer (5 mM HEPES, pH 7.4, 210 mM mannitol, 70 mM sucrose, 100 mM KCl, and 1 mM EGTA) were treated with 0.5% or 1% digitonin (Sigma-Aldrich) for 15 minutes at 4° C. Alternatively, the mitochondria were incubated with 0.5% digitonin for 1 minute at 4° C., diluted with suspension buffer, and then treated with […] trypsin for 15 minutes at 4° C.

[3] = target: HSP70 (endogenous, in lysates of human cells) (human) (UniProt P0DMV8); experiment: anti-MUC1-N immunoprecipitation from HCT116/MUC1 lysates, immunoblot, scanning densitometry
[4] = tested on: purified recombinant human HSP90; experiment: GST pull-down binding study with recombinant HSP90; conditions: for binding to HSP90 after incubation with c-Src and ATP: GST fusion proteins incubated with c-Src and ATP 20 minutes at 30° C., then HSP90 1 hour at 4° C.
Description: (§3) Binding Studies. Sequences encoding MUC1-CD, MUC1-CD(1-45), or MUC1-CD(46-72) were amplified by PCR and cloned into the pGEX-4T vector (Amersham Biosciences, Piscataway, N.J.). Purified GST-MUC1-CD fusion proteins bound to glutathione beads were incubated with purified recombinant human HSP70 or HSP90 (Stressgen Biotechnologies) for 1 hour at 4° C. In other experiments, the purified GST fusion proteins bound to glutathione beads were incubated with or without 50 ng c-Src (Upstate Biotechnology) in the presence of […] for 20 minutes at 30° C. HSP90 was then added for 1 hour at 4° C. Precipitated proteins were subjected to immunoblot analysis with anti-HSP70 or anti-HSP90.

[5] = target: T1, purified recombinant human HSP70 (Homo sapiens, UniProt P0DMV8); experiment: GST pull-down binding study with recombinant HSP70; conditions: GST fusion proteins on glutathione beads, 1 hour at 4° C., no c-Src
T1 construct: purchased Stressgen Biotechnologies
Description: as §3

cytosolic MUC1-C levels = experiment: Immunoblot of cytosolic fractions for MUC1-C; type: cell-based, Human; conditions: cytosolic fraction of HCT116/MUC1 cells; HRG 10 minutes
Description: as §1, §2

[6] = tested on: binding of MUC1 and HSP70; experiment: MUC1-HSP70 co-immunoprecipitation and immunoblot in cells; type: cell-based, Human; conditions: HRG 10 minutes
Description: as §1
Immunoprecipitation and immunoblotting. Equal amounts of protein from cell lysates were incubated with anti-MUC1-N (antibody DF3) (Kufe et al. (1984) Hybridoma 3:223-232), anti-Flag (Sigma-Aldrich, St. Louis, Mo.), anti-c-Src (Upstate Biotechnology, Lake Placid, N.Y.), anti-HSP90 (BD Biosciences PharMingen, San Diego, Calif.) or normal mouse IgG (Santa Cruz Biotechnology, Santa Cruz, Calif.) for 2 hours at 4° C. Immune complexes were prepared as described (Li et al. (1998) Mol. Cell. Biol. 18:7216-7224) and subjected to immunoblot analysis with anti-HSP70, anti-HSP90, anti-MUC1-N, anti-MUC1-C (Ab5; Neomarkers, Fremont, Calif.), anti-phospho-c-Src(Tyr416) (Cell Signaling Technology, Beverly, Mass.) or anti-c-Src. […] Reactivity was detected with horseradish peroxidase-conjugated secondary antibodies and chemiluminescence (PerkinElmer Life Sciences, Boston, Mass.). Intensity of the signals was determined by densitometric scanning. Statistical significance was determined by the Student's t-test.

[7] = target: T2, purified recombinant human HSP90 (human, UniProt P08238 1-724, limits assumed); experiment: GST pull-down with recombinant HSP90 after incubation with c-Src and ATP, anti-HSP90 immunoblot
T2 construct: Bought (Stressgen Biotechnologies); also called recombinant HSP90
T2 sequence (P08238 whole entry T147R/R177M): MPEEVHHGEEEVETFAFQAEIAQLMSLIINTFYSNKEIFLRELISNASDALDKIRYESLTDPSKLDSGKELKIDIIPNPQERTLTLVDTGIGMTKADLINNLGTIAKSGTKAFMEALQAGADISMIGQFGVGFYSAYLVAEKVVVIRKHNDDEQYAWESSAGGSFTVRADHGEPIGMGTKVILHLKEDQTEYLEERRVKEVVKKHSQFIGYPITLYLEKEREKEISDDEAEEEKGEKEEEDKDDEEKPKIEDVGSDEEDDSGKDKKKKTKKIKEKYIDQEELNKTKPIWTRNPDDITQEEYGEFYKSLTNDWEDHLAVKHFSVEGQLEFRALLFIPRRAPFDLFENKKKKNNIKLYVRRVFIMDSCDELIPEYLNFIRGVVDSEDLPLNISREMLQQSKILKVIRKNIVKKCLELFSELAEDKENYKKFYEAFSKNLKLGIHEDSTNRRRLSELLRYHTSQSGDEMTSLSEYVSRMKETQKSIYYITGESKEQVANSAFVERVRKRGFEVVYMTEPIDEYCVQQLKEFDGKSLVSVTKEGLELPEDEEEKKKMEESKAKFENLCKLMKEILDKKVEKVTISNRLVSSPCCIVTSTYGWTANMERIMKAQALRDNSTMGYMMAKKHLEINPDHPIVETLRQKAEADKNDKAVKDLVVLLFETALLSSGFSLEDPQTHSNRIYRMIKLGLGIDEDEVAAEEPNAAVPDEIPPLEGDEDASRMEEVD

T1 sequence (P0DMV8 2-641 limits assumed): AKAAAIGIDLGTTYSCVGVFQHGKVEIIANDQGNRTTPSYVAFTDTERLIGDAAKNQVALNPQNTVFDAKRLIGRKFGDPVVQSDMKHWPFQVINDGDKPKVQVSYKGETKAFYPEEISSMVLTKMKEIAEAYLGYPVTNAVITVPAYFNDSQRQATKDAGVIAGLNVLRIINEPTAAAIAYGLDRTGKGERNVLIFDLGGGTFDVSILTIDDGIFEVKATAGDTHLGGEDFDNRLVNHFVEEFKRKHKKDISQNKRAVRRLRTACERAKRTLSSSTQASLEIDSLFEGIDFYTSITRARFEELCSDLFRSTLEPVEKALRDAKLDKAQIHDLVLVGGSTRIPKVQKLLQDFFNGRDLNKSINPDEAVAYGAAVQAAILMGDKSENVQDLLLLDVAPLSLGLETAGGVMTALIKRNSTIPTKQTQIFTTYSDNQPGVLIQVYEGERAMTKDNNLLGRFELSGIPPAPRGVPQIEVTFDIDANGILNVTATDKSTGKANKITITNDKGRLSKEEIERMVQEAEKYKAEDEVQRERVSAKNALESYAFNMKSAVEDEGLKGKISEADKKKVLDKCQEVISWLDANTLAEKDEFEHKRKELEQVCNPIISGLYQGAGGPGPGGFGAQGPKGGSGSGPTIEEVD

CC(C)(C)n1nc(-c2ccc(Cl)cc2)c2c(N)ncnc21 [PP2, reference compound]
HRG-induced targeting of MUC1 to mitochondria in presence of inhibitor ([1]; PP2 or GA for 1 hour, then HRG): attenuated
HRG-induced c-Src activation (c-Src; PP2 10 μM for 1 hour, then HRG 20 ng/ml 10 minutes): blocked HRG-induced c-Src activation
HRG-induced binding of MUC1 and HSP90 in presence of inhibitor ([2]; HCT116/MUC1 cells, PP2 10 μM or GA 1 μM for 1 hour, then HRG, anti-MUC1-N precipitates): attenuated this response

MUC1 (human, full length, expressed in cells) (from UniProt P15941 24-1255)
percent of the total HSP70 pool associated with MUC1 [3]: 0.6%

MUC1-CD(1-45): GST fusion deletion mutant, amino acids 1-45 of the MUC1 cytoplasmic domain (CQCRRKNYGQLDIFPARDTYHPMSEYPTYHTHGRYVPPSSTDRSP; not fully specified; cysteine pairing not given here; also: fused to GST)
binding to HSP90 after incubation with c-Src and ATP [4]: no detectable binding of HSP90

MUC1-CD(46-72): GST fusion of amino acids 46-72 (YEKVSAGNGGSSLSYTNPAVAATSANL; SEQ ID NO:2) of the human MUC1 CD (not fully specified; also: fused to GST)
binding to HSP70 [5]: binding to HSP70 was detected
binding to HSP90 after incubation with c-Src and ATP [4]: no detectable binding of HSP90

MUC1-CD: GST fusion of the 72 amino acid MUC1 cytoplasmic domain (SEQ ID NO:1)
binding to HSP70 [5]: binds to HSP70
binding to HSP90 ([4]; GST fusion protein on glutathione beads, 1 hour at 4° C., no c-Src): but not HSP90
binding to HSP90 after incubation with c-Src and ATP [4]: c-Src induced binding of MUC1-CD to HSP90

heregulin [HRG]
cytosolic MUC1-C levels (cytosolic MUC1-C levels): increase in cytosolic MUC1-C levels
localization of MUC1-C to mitochondria on HRG stimulation ([1]; HRG 10 minutes): induces localization of MUC1-C, and not MUC1-N, to mitochondria
c-Src activation as determined by autophosphorylation (c-Src; HRG 20 ng/ml 10 minutes): activated c-Src
binding of MUC1-CD to HSP70 on HRG stimulation ([6]; HCT116/MUC1-CD (Flag-MUC1-CD) cells): little effect on binding of MUC1-CD to HSP70
binding of endogenous MUC1 and HSP70 on HRG stimulation ([6]; MCF-7 breast cancer cells): little if any effect on this interaction
binding of endogenous MUC1 and HSP70 on HRG stimulation ([6]; ZR-75-1 breast cancer cells): no apparent effect on the constitutive interaction between MUC1 and HSP70
binding of MUC1-CD to HSP90 on HRG stimulation ([2]; HCT116/MUC1-CD (Flag-MUC1-CD) cells, HRG 10 minutes): stimulated binding of MUC1-CD to HSP90
binding of MUC1 and HSP90 on HRG stimulation ([2]; HCT116/MUC1 cells, HRG 20 ng/ml 10 minutes): increase in binding of MUC1 and HSP90
binding of endogenous MUC1 and HSP90 on HRG stimulation ([2]; MCF-7 breast cancer cells, HRG 10 minutes): increased binding of MUC1 and HSP90
binding of endogenous MUC1 and HSP90 on HRG stimulation ([2]; ZR-75-1 breast cancer cells, HRG 10 minutes): increased binding of MUC1 and HSP90
binding of cytosolic MUC1-C and HSP90 ([2]; cytosolic fraction of HCT116/MUC1 cells, HRG 10 minutes, anti-HSP90 precipitates): increases binding of cytosolic MUC1-C and HSP90
binding of MUC1 and HSP90 at the cell membrane ([2]; purified cell membranes of HCT116/MUC1 cells, HRG 10 minutes): stimulates binding of MUC1 and HSP90 at the cell membrane

B1: GST-MUC1-CD(1-45) (other)
chain: CQCRRKNYGQLDIFPARDTYHPMSEYPTYHTHGRYVPPSSTDRSP
modifications: not fully specified; cysteine pairing not given here; also: N-terminal GST fusion (pGEX-4T), sequence not given here
notes: Deletion mutant of MUC1-CD on glutathione beads; it lacks Y-46; not shown: glutathione S-transferase (GST) tag encoded by the pGEX-4T vector
binding result [7]: no binding
